Measured values published in the SangsterLogP compilation.

Assay: method code SF-HPLC, from DOI: 10.1021/jm00047a008, PMID: 7932579
Conditions: pH 5.0

With `Cc1ccc2c(c1)c(C)c1c3ccccc3nc-1n2C` the logD was 2.04.

Same assay, conditions: pH 9.0

Compared with `Cc1cccc2c(C)c3c(nc12)[nH]c1ccccc13`, `Cc1c2ccccc2nc2[nH]c3ccccc3c12` is lower in logD: 2.92 for the first, 2.69 for the second.

`Cc1c2c3ccccc3nc-2n(C)c2c(C)cccc12` and `Cc1c2c3ccccc3nc-2n(C)c2ccccc12` are within 0.2 log units of each other in logD: 2.46 for the first, 2.58 for the second.

`Cc1ccc2nc3n(C)c4ccc(C)cc4c(C)c-3c2c1` and `Cc1ccc2nc3[nH]c4ccc(C)cc4c3c(C)c2c1` are within 0.2 log units of each other in logD: 2.42 for the first, 2.58 for the second.

Compared with `Cn1c2nc3ccccc3c-2cc2ccccc21`, `c1ccc2nc3[nH]c4ccccc4c3cc2c1` is lower in logD: 3.04 for the first, 2.44 for the second.
